We go through 9 molecules from patent US6180656A, “Use of condensated (hetaryl-substituted) 1-benzal-3-pyrazol derivates for treating special diseases of the cardiovascular and the central nervous systems” (Bayer Aktiengesellschaft, priority 1996, dated 2001).

One experiment relates to rabbit aorta rings. Put plainly: Vasorelaxant action in vitro (aorta rings precontracted with phenylephrine). The note with it: Oryctolagus cuniculus; isolated rabbit aorta, phenylephrine contraction, 37° C., reduction of control contraction by 50%; read-out: Aorta IC 50. How it is done:
(§1) To determine the cardiovascular action, the following investigations were carried out: in in vitro investigations on cells of vascular origin, the influence on guanylate cyclase-dependent cGMP formation was tested with and without NO donors. The vasorelaxant action was determined on rabbit aorta rings precontracted with phenylephrine. The hypotensive action was investigated in anaesthetized rats.
Vasorelaxant Action in vitro
1.5 mm wide rings of an isolated rabbit aorta are placed individually under a pretension into 5 ml organ baths containing carbogen-aerated Krebs-Henseleit solution at a temperature of 37° C. The contractile force is amplified and digitalized, and recorded in parallel on a linear recorder. To generate a contraction, phenylephrine is added to the bath cumulatively in increasing concentration.
After several control cycles, the substance to be investigated is investigated in each further passage in increasing dose in each case and the contraction is compared with the height of the contraction achieved in the last previous passage. From this, the concentration is calculated which is necessary to reduce the height of the control value by 50% (IC50). The standard administration volume is 5 μl.

In experiment [1] the target is T1, soluble guanylate cyclase (Sus scrofa, UniProt A0A4X1U7N1+A0ACM8Q7I6).
T1 construct: endogenous in cells; host or cells: primary endothelial cells from pig aorta
T1 sequence (A0A4X1U7N1 1-619): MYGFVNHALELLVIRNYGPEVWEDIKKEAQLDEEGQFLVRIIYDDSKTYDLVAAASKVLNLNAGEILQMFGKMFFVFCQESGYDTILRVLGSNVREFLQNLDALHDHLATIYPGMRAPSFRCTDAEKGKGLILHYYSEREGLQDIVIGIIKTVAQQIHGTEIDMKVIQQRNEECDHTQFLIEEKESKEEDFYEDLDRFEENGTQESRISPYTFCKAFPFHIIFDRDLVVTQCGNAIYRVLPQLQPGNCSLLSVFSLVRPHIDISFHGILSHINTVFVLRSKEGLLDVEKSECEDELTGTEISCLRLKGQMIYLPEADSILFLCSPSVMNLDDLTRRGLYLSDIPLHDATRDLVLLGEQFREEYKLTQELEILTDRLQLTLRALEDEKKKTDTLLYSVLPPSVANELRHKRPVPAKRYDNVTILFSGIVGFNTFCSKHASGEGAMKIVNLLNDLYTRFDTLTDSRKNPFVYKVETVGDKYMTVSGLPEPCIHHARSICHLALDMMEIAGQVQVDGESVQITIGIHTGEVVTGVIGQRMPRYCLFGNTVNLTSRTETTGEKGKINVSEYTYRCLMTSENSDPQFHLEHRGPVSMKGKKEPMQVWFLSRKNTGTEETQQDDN
T1 sequence (A0ACM8Q7I6 1-688): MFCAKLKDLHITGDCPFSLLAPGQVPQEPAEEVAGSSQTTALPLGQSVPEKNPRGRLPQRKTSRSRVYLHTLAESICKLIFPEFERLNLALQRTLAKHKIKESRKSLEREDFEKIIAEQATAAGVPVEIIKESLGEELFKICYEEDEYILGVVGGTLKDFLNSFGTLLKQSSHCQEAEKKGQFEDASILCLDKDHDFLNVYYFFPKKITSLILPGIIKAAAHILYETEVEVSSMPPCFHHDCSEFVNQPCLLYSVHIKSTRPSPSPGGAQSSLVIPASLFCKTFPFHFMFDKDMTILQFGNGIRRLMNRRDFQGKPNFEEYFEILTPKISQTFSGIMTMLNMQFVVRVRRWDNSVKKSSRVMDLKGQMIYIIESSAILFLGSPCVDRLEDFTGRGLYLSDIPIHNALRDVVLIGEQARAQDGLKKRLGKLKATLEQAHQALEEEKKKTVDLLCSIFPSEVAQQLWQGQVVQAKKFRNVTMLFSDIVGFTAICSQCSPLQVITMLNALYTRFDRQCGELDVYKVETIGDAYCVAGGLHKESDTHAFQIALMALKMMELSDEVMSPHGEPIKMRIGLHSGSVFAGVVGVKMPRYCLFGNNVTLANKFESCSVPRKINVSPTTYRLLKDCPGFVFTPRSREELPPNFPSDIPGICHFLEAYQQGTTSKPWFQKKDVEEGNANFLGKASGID
The experiment can be described thus: Stimulation of soluble guanylate cyclase in primary endothelial cells (intracellular cGMP, radioimmunological). Type of experiment: cell-based. The settings on record: 10 min, test substance 1 μM, primary endothelial cells from pig aorta, NOSYNTH, stimulation buffer with or without NO donor (SNP 1 μM), read-out: % cGMP increase (NOSYNTH). How it is done: as §1
Stimulation of Soluble Guanylate Cyclase in Primary Endothelial Cells
Primary endothelial cells were isolated from pig aortas by treatment with collagenase soln. The cells were then cultured in culture medium until confluence was achieved. For the investigations, the cells were passaged, inoculated into cell culture plates and subcultured until confluence was achieved. To stimulate the endothelial guanylate cyclase, the culture medium was aspirated and the cells were washed once with Ringer's solution and incubated in stimulation buffer with or without NO donor (sodium nitroprusside, SNP, 1 μM). Following this, the test substances (final concentration 1 μM) were then pipetted onto the cells. After the end of the incubation time of 10 minutes, the buffer solution was aspirated and the cells were lysed at -20° C. for 16 hours. The intracellular cGMP was then determined radioimmunologically.

A further experiment has as its system anaesthetized rats. Put plainly: Blood pressure measurements on anaesthetized rats. Type of experiment: in vivo. The settings on record: anaesthetized male Wistar rats; for Max. blood pressure decrease: time 60 min. How it is done:
as §1
Blood Pressure Measurements on Anaesthetized Rats
Male Wistar rats having a body weight of 300-350 g are anaesthetized with thiopental (100 mg/kg i.p.). After tracheotomy, a catheter is inserted in the femoral artery for blood pressure measurement. The substances to be tested are administered orally in various doses as a suspension in Tylose solution by means of stomach tube.

Turning to `OCc1ccc(-c2nn(Cc3ccccc3)c3ccccc23)o1` [Example 14, reference compound], in the experiment on rabbit aorta rings, the IC50 was found to be 10 µM. In addition, the activation at 1 µM in experiment [1] was more than 906%. In the experiment on anaesthetized rats (10 mg/kg oral), the “Time (of max. blood pressure decrease table)” value came out at 60 min and the “Max. blood pressure decrease” value was -10 mm Hg. Moreover, in the experiment on anaesthetized rats (30 mg/kg oral), the “Time (of max. blood pressure decrease table)” value is 60 min and the “Max. blood pressure decrease” value is recorded as -18 mm Hg.
`OCc1ccc(-c2nn(Cc3cccc(F)c3)c3ccccc23)o1` [Example 4]: in the experiment with rabbit aorta rings, the IC50 stood at 9.2 µM. Besides, in experiment [1], the activation at 1 µM turned out to be 413%.
Turning to `COc1cccc(Cn2nc(-c3ccc(CO)o3)c3ccc(F)cc32)c1` [Example 8], in experiment [1], the activation at 1 µM is 28%.
On to `OCc1ccc(-c2nn(Cc3ccc(F)cc3)c3ccccc23)o1` [Example 3], for which the IC50 in the experiment on rabbit aorta rings turned out to be 16 µM. In addition, in experiment [1], the activation at 1 µM turned out to be 250%.
For the molecule `COc1cccc(Cn2nc(-c3ccc(CO)o3)c3ccccc32)c1` [Example 2], the activation at 1 µM in experiment [1] was found to be 72%.
Consider `OCc1ccc(-c2nn(Cc3ccccc3F)c3ccccc23)o1` [Example 1, 1-(2-Fluorobenzyl)-3-(5-hydroxymethylfuran-2-yl)-indazole], for which the IC50 with rabbit aorta rings was 4.1 µM. The activation at 1 µM in experiment [1] was more than 1000%. Further, in the experiment with anaesthetized rats (10 mg/kg oral), the “Time (of max. blood pressure decrease table)” value was determined as 60 min and the “Max. blood pressure decrease” value is reported as -14 mm Hg. Further, in the experiment on anaesthetized rats (30 mg/kg oral), the “Time (of max. blood pressure decrease table)” value is reported as 60 min and the “Max. blood pressure decrease” value is recorded as -18 mm Hg.
Consider `Cc1ccc(-c2nn(Cc3ccccc3)c3ccccc23)o1` [Example 10], for which the activation at 1 µM in experiment [1] came to 238%.
Take `OCc1ccc(-c2nn(Cc3ccccc3F)c3cc(F)ccc23)o1` [Example 7]: the activation at 1 µM in experiment [1] amounted to 734%.
On the same count and under the same terms, the value for `OCc1ccc(-c2nn(Cc3ccccc3)c3ccccc23)s1` [Example 11] was 14%.
